Assay results as given in patent US20260265271A1, “Cereblon Ligands and Uses Thereof” (REGENTS OF THE UNIVERSITY OF MICHIGAN, priority 2022, published 2026).
Counter-ions that a name gives are not always drawn. Each block holds one compound with its values, some of them ahead of it.

Experiments:
IKZF2 = target: T1, IKZF2 (Homo sapiens, UniProt Q96SW2+Q9UKS7); test: IKZF2 HiBiT degradation assay (Jurkat-IKZF2-HiBiT); format: cell-based
T1 construct: host or cells: Jurkat-IKZF2-HiBiT
Method: Degradation of IKZF2 protein was determined by IKZF2 HiBiT assay using the Jurkat-IKZF2-HiBiT (Promega) cell line. […] Compounds were serially diluted in culture medium, and 20 μl of the diluted compounds were added to the appropriate wells of the plate. After the addition of compounds, the cells were incubated at 37° C. in an atmosphere of 5% CO2 for 24 hours. At the end of treatment, 40 ul of Nano-Glo HiBiT Lytic Detection Reagent (Promega) was added to each well, and then the plates were incubated at room temperature for 10-20 minutes. The luminescent signal was measured using a CALRIOstar plate reader (BMG Labtech). The readings were normalized to the DMSO-treated cells and the IC50 was calculated by nonlinear regression (four parameters sigmoid fitted with variable slope, least squares fit, and no constraint) analysis using the GraphPad Prism 8 software.

[1] = target: wild-type human CRBN protein (Homo sapiens, UniProt Q96SW2); test: biochemical
Sequence of wild-type human CRBN protein (Q96SW2 whole entry): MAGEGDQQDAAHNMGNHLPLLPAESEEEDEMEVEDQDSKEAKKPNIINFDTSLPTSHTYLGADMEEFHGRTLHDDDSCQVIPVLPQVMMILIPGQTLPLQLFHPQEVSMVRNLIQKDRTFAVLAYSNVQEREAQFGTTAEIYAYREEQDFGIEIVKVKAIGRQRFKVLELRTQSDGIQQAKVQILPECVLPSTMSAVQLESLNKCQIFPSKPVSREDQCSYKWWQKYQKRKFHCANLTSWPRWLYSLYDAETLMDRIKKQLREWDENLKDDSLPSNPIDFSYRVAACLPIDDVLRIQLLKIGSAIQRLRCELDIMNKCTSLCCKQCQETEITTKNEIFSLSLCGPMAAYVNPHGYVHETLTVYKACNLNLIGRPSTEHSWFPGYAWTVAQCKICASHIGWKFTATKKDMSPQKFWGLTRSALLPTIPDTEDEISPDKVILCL

T1 sequence (Q9UKS7 whole entry): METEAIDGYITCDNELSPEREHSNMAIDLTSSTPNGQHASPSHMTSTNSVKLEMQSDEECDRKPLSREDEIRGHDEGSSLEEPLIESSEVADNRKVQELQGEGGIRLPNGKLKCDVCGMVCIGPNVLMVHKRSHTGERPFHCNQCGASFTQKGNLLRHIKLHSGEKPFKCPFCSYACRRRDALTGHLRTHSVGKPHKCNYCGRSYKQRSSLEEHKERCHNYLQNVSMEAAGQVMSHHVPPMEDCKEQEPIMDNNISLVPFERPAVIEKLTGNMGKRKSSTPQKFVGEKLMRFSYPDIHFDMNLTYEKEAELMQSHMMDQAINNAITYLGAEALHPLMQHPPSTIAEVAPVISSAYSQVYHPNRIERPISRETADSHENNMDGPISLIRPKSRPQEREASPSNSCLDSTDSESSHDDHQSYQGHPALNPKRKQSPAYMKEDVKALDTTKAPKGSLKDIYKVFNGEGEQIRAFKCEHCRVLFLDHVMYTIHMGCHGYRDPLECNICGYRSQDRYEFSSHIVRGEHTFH
T1 sequence (Q96SW2 whole entry): as the sequence (Q96SW2 whole entry) above
T1 sequence (Q16531 2-1140 partner limits assumed): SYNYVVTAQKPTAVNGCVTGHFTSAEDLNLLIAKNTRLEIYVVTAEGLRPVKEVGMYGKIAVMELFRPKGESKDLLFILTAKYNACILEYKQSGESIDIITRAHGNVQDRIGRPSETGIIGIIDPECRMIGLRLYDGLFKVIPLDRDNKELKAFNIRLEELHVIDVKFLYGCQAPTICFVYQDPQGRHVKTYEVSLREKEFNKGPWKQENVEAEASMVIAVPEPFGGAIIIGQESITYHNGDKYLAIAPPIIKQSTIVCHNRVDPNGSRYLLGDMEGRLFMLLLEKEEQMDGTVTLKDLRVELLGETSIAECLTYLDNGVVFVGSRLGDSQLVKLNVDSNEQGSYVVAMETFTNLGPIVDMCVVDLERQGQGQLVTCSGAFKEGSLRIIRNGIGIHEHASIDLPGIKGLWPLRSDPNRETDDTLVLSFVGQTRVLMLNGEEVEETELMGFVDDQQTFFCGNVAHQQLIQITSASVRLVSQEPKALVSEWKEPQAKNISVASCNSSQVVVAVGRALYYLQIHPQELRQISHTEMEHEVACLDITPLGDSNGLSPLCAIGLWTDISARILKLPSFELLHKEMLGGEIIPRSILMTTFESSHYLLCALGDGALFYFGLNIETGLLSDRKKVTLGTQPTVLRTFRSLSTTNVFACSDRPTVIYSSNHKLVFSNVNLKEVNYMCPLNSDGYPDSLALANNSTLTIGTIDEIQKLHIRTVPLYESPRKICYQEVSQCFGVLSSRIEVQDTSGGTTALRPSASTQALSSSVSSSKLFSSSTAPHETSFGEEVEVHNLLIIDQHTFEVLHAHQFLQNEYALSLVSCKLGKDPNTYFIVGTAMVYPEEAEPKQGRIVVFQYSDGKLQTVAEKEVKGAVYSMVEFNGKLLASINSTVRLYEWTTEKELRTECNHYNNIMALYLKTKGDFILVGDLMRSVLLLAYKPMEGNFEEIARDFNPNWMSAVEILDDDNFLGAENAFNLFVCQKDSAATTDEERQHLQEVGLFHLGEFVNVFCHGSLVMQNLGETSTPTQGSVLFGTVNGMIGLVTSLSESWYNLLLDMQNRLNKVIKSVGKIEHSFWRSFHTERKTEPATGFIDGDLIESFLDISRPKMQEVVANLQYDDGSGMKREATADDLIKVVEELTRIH

SMILES: O=C1CCC(N2Cc3cc4c(cc3C2=O)OC[C@@H]2CN(Cc3ccc(F)cc3)CCN42)C(=O)N1 (stereo partly drawn) [Compound C19, 3-((S)-3-(4-fluorobenzyl)-8-oxo-1,2,3,4,4a,5,8,10-octahydro-9H-pyrazino[1′,2′:4,5][1,4]oxazino[2,3-f]isoindol-9-yl)piperidine-2,6-dione]
DC50 (IKZF2; read-out: IKZF2 degradation DC50, Jurkat-IKZF2-HiBiT cells, 24 hours): > 2 µM
Dmax (IKZF2; read-out: IKZF2 degradation Dmax (%)): 0%
IC50 [1]: 0.33 µM

SMILES: CC(C)(C)OC(=O)N1CCN2c3cc4c(cc3OC[C@@H]2C1)C(=O)N([C@H]1CCC(=O)NC1=O)C4 [Compound B3, (S)-tert-butyl (4aS)-9-(2,6-dioxopiperidin-3-yl)-8-oxo-1,2,4a,5,9,10-hexahydro-8H-pyrazino[1′,2′:4,5][1,4]oxazino[2,3-f]isoindole-3(4H)-carboxylate]
IC50 [1]: 1.7 µM

SMILES: CN1CCN2c3cc4c(cc3OC[C@@H]2C1)C(=O)N(C1CCC(=O)NC1=O)C4 (stereo partly drawn) [Compound B5, 3-((S)-3-methyl-8-oxo-1,2,3,4,4a,5,8,10-octahydro-9H-pyrazino[1′,2′:4,5][1,4]oxazino[2,3-f]isoindol-9-yl)piperidine-2,6-dione]
IC50 [1]: 0.92 µM

SMILES: O=C1CCC(N2Cc3cc4c(cc3C2=O)OC[C@@H]2CNCCN42)C(=O)N1 (stereo partly drawn) [Compound B1, 3-((S)-8-oxo-1,2,3,4,4a,5,8,10-octahydro-9H-pyrazino[1′,2′:4,5][1,4]oxazino[2,3-f]isoindol-9-yl)piperidine-2,6-dione hydrochloride salt]
IC50 [1]: 2.1 µM

SMILES: O=C1CCC(N2Cc3c(ccc4c3N3CCNC[C@H]3CO4)C2=O)C(=O)N1 (stereo in doubt) [Compound B16, (R)-3-((S)-3-oxo-1,3,7,7a,8,9,10,11-octahydro-2H-pyrazino[1′,2′:4,5][1,4]oxazino[3,2-e]isoindol-2-yl)piperidine-2,6-dione]
IC50 [1]: 1.4 µM

More lines, now with the values ahead:

IC50 [1]: 23 µM
SMILES: O=C1CC[C@H](NC(=O)c2ccc3c(c2)OC[C@H]2CNCCN32)C(=O)N1 [Compound B22, (R)—N—((S)-2,6-dioxopiperidin-3-yl)-1,2,3,4,4a,5-hexahydrobenzo[b]pyrazino[1,2-d][1,4]oxazine-8-carboxamide]

IC50 [1]: 4.6 µM
SMILES: CN(C(=O)c1ccc2c(c1)OC[C@H]1CNCCN21)C1CCC(=O)NC1=O (stereo partly drawn) [Compound B21, (4aR)—N-(2,6-dioxopiperidin-3-yl)-N-methyl-1,2,3,4,4a,5-hexahydrobenzo[b]pyrazino[1,2-d][1,4]oxazine-8-carboxamide]

IC50 [1]: 5.2 µM
SMILES: O=C1CC[C@@H](N2Cc3cc4c(cc3C2=O)OC[C@@H]2CNCCN42)C(=O)N1 [Compound B2, (R)-3-((S)-8-oxo-1,2,3,4,4a,5,8,10-octahydro-9H-pyrazino[1′,2′:4,5][1,4]oxazino[2,3-f]isoindol-9-yl)piperidine-2,6-dione]
